Data set [1] is described as follows: Solubility in 0.1 M phosphate buffer at pH 7. The data set is classed as physicochemical. As to conditions: 0.1 M phosphate buffer at pH 7, 10 mg/mL final peptide concentration, shaking 2 hours at room temperature, peptides as TFA-salts; measured sample pH 6.5-7.0.
Another data set addresses T1, hGIPR (Homo sapiens, UniProt P48546).
T1 construct: expressed in transfected cells; host or cells: CHO CRE-luciferase reporter cells
T1 sequence (P48546 22-466): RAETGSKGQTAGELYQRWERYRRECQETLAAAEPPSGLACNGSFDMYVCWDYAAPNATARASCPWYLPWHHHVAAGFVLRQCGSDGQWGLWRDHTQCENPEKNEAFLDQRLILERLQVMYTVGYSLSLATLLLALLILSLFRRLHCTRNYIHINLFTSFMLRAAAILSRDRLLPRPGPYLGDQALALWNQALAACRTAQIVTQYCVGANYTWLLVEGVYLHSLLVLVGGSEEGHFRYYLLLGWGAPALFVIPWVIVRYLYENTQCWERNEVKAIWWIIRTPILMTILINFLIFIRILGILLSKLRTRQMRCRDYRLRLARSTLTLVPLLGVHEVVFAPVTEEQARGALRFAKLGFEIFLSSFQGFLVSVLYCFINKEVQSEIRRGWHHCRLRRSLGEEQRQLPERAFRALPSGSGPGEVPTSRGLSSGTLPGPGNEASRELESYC
In words: hGIPR CreLuc assay in 0.5% and 100% plasma (CHO CRE-luciferase reporter cells). As to conditions: 0.5% human plasma, read-out: hGIPR 0.5% hP. The data set is classed as cell-based. A general note: In a reporter assay the amount or activity of a reporter protein is the signal.

SMILES strings stand for the structures.

By solubility is commonly meant the concentration that dissolves in the medium under given conditions. As for `CC[C@H](C)[C@H](NC(=O)[C@H](CC(C)C)NC(=O)[C@H](Cc1c[nH]cn1)NC(=O)[C@H](CCCNC(=N)N)NC(=O)[C@@H](NC(=O)[C@H](Cc1ccccc1)NC(=O)[C@H](C)NC(=O)C(C)(C)NC(=O)[C@H](CCC(N)=O)NC(=O)[C@H](C)NC(=O)[C@H](CCC(N)=O)NC(=O)[C@H](CCC(=O)O)NC(=O)[C@H](CC(=O)O)NC(=O)[C@H](CC(C)C)NC(=O)C(C)(C)NC(=O)[C@@H](NC(=O)[C@H](CO)NC(=O)[C@H](Cc1ccc(O)cc1)NC(=O)[C@H](CC(=O)O)NC(=O)[C@H](CO)NC(=O)[C@@H](NC(=O)[C@H](Cc1ccccc1)NC(=O)[C@@H](NC(=O)CNC(=O)[C@H](CCC(=O)O)NC(=O)C(C)(C)NC(=O)[C@@H](N)Cc1ccc(O)cc1)[C@@H](C)O)[C@@H](C)O)[C@@H](C)CC)C(C)C)C(=O)N[C@@H](CC(N)=O)C(=O)N[C@@H](CCCCNC(=O)[C@@H](N)CCCCNC(=O)[C@@H](N)CCCCNC(=O)CC[C@H](NC(=O)CC[C@H](NC(=O)CC[C@H](NC(=O)CC[C@H](NC(=O)CC[C@H](NC(=O)CCCCCCCCCCCCCCCCCCC(=O)O)C(=O)O)C(=O)O)C(=O)O)C(=O)O)C(=O)O)C(=O)NC(C)(C)C(=O)N[C@H](C(=O)N[C@@H](CCCNC(=N)N)C(=O)N[C@@H](CCC(N)=O)C(=O)N[C@@H](CCCNC(=N)N)C(=O)N[C@@H](Cc1ccc(O)cc1)C(N)=O)[C@@H](C)O` [Compound 155, Y-Aib-E-G-T-F-T-S-D-Y-S-I-Aib-L-D-E-Q-A-Q-Aib-A-F-V-R-H-L-I-N-K(1,3)-Aib-T-R-Q-R-Y-NH2.C20DA-gGlu-gGlu-gGlu-gGlu-gGlu-eLys-eLys(1,2)], the solubility at 2 h in data set [1] was 8900 µg/mL. Also, the EC50 at hGIPR turned out to be 700 pM.

In the case of `CC[C@H](C)[C@H](NC(=O)[C@H](CC(C)C)NC(=O)[C@H](Cc1c[nH]cn1)NC(=O)[C@H](CCCNC(=N)N)NC(=O)[C@@H](NC(=O)[C@H](Cc1ccccc1)NC(=O)[C@H](C)NC(=O)C(C)(C)NC(=O)[C@H](CCC(N)=O)NC(=O)[C@H](C)NC(=O)[C@H](CCC(N)=O)NC(=O)[C@H](CCCCN)NC(=O)[C@H](CCC(=O)O)NC(=O)[C@H](CC(C)C)NC(=O)C(C)(C)NC(=O)[C@@H](NC(=O)[C@H](CO)NC(=O)[C@H](Cc1ccc(O)cc1)NC(=O)[C@H](CC(=O)O)NC(=O)[C@H](CO)NC(=O)[C@@H](NC(=O)[C@H](Cc1ccccc1)NC(=O)[C@@H](NC(=O)CNC(=O)[C@H](CCC(=O)O)NC(=O)C(C)(C)NC(=O)[C@@H](N)Cc1ccc(O)cc1)[C@@H](C)O)[C@@H](C)O)[C@@H](C)CC)C(C)C)C(=O)N[C@@H](CC(N)=O)C(=O)N[C@@H](CCCCNC(=O)[C@@H](N)CCCCNC(=O)CC[C@H](NC(=O)CC[C@H](NC(=O)CC[C@H](NC(=O)CC[C@H](NC(=O)CC[C@H](NC(=O)CC[C@H](NC(=O)CCCCCCCCCCCCCCCCC(=O)O)C(=O)O)C(=O)O)C(=O)O)C(=O)O)C(=O)O)C(=O)O)C(=O)N[C@@H](C)C(=O)N[C@H](C(=O)N[C@@H](CCCNC(=N)N)C(=O)N[C@@H](CCC(N)=O)C(=O)N[C@@H](CCCNC(=N)N)C(=O)N[C@@H](Cc1ccc(O)cc1)C(N)=O)[C@@H](C)O` [Compound 159, Y-Aib-E-G-T-F-T-S-D-Y-S-I-Aib-L-E-K-Q-A-Q-Aib-A-F-V-R-H-L-I-N-K(1,3)-A-T-R-Q-R-Y-NH2.C18DA-gGlu-gGlu-gGlu-gGlu-gGlu-gGlu-eLys(1,2)], in data set [1], the solubility at 2 h amounted to 9600 µg/mL. Further, the EC50 on hGIPR was found to be 200 pM.

The values above are taken from patent US20250382344A1, “Soluble GLP1/GIP/NPY2 Receptor Triple Agonists” (Boehringer Ingelheim International GmH, priority 2024, published 2025).
